For experiment [1], the system named is Balb/c mice, IL-23 injected ear. In words: Murine model of psoriatic-like epidermal hyperplasia induced by intradermal injections of IL-23. In kind it is in vivo. As to conditions: mouse, intradermal IL-23. As to the method:
Mouse recombinant IL-23, carrier free (Cat #14-8231) is provided by e-Bioscience (Frankfurt, Germany).
Balb/c mice (female, 18-20 g body weight) were obtained from Janvier Labs (Le Genest-Saint-Isle, France). Mice are kept on a 12 h light/dark cycle. Temperature was maintained at 22° C., food and water are provided ad libitum.
The design of the study was adapted from Rizzo H L. et al. (Rizzo et al. 2011).
On the first day (D1), the mice were shaved around the two ears. For 4 consecutive days (D1 to D4), the mice received a daily intradermal dose of mouse recombinant IL-23 (1 μg/20 μL in PBS/0.1% BSA) in the right pinna ear and 20 μL of PBS/0.1% BSA in the left pinna ear under anesthesia.
From D1 to D5, mice were dosed with test-compound or with vehicle, 1 h prior IL-23 injection.
The thickness of both ears was measured daily with an automatic caliper. Body weight was assessed at initiation and at sacrifice. On fifth day, 2 h after the last dosing, the mice were sacrificed. The pinnae of the ear were cut, excluding cartilage. The pinnae, placed in a vial containing 1 mL of RNAlater® solution.
There were 8 mice per group. The results were expressed as mean±SEM and statistical analysis was performed using one-way ANOVA followed by Dunnett's post-hoc test versus IL-23 vehicle groups.

Experiment [2] has as its target T1, SIK3 (Homo sapiens, UniProt Q9Y2K2).
T1 construct: purchased SignalChem S12-11G-100
Nature of the experiment: 33P radioactive kinase assay, SIK3. In kind it is biochemical. As to conditions: 33P radioactive assay; AMARA 7 μM; 15 μM ATP; 80 min; average IC50. As to the method: The principle of the ^33P radioactive kinase assay consists in measuring the incorporated ^33P into the substrate AMARA peptide when phosphorylated by SIK1, SIK2 or SIK3 using [^33P]-g-ATP, which correlates with kinase activity.
The test compounds are prepared as a serial dilution of 10 point dose responses with 1/5 dilution steps in 100% DMSO starting from 2 mM highest concentration, diluted 1/20 in water and 5 μL is transferred to the assay plates (Greiner, Cat #651201).
1% DMSO and 10 μM staurosporine final concentrations are used as negative and positive controls.
11 μL of enzyme-substrate mixture is added on the assay plates. The reactions are started by adding 9 μL ATP mixture, consisting of non-labeled and ^33P-labeled ATP, on the assay plates.
The reactions are stopped by adding 25 μL phosphoric acid (150 mM) to the reactions.
The completely terminated kinase reactions are transferred using a harvester on pre-wetted UniFilter-96 plates (UniFilter-96 GF/B, PerkinElmer Inc., Cat #6005177).
After harvesting the kinase reactions, the filter plates are washed 6 times with phosphoric acid (75 mM). The back of the UniFilter-96 plates are sealed and 40 μL MicroScint-20 (PerkinElmer Inc., Cat #6013621) is added to each well. The top of the plates are sealed with TopSeal-A. Read-out is performed with a TopCount instrument (PerkinElmer Inc.).
Raw data are generated following the read-out performed on the TopCount, plotted to generate dose response curves to calculate percentage inhibition (PIN) and average IC50 for each SIK homologue which are reported in the table below.

Experiment [3] deals with B10.RIII mice, IL-23 EEV. In words: Murine model of psoriatic arthritis induced by overexpression of IL-23. In kind it is in vivo. As to conditions: mouse, IL-23 overexpression. An excerpt: Mouse IL-23 enhanced episomal expression vector (EEV) was obtained from System Biosciences (Cat #EEV651A-1). Mouse IL-23 Quantikine ELISA Kits were obtained from R&D Systems (Cat #M2300). ProSense® 680 and OsteoSense® 750EX were obtained from PerkinElmer (Cat #NEV10003 and NEV10053EX). RNAlater® was obtained from Ambion (Cat #AM7021). Imalgene® 1000 (Merial) and Rompun® 2% (Bayer) were obtained from Centravet (Cat #IMA004-6827812 and ROM001-6835444).
B10.RIII mice (male, 8-week old) were obtained from Charles River (Écully, France). Mice were kept on a 12 h light/dark cycle. Temperature was maintained at 22±2° C., food and water were provided ad libitum.
The design of the study is adapted from Sherlock J P. et al. (Sherlock et al. 2012).
On the first day (D1), the mice underwent a hydrodynamic injection of Ringer or IL-23 EEV in Ringer into the tail vein.
As of D5, twice a week, the mice were scored for clinical symptoms until the end of the experiment.
On D5, blood was collected by puncture in the submandibular vein to assess the serum IL-23 concentration.
On D9, mice from all groups received ProSense® 680 probe (0.8 nmol/10 g, i.p.). On D10, the mice were anesthetized. Granulocyte infiltration was then measured using in vivo molecular imaging (Bruker In-Vivo Xtreme imaging system).
On D11, randomization was performed according to ProSense® 680 molecular imaging and scoring.
As of D12, mice were dosed with test compound or with vehicle.
On D36, mice from all groups were sacrificed 2 h after last administration of compound.
Twice weekly, clinical signs of inflammation were scored: 0 for normal paw; 1 if swelling of one digit; 2 if swelling of two or more digits; 3 if swelling of the entire paw. The scores of all limbs were summed up to produce a global score.
There were 10 mice per group. The results are expressed as mean±SEM and statistical analysis is performed using one-way ANOVA followed by Dunnett's post-hoc test versus diseased vehicle group for scoring and imaging analysis, versus sham vehicle group for body weight.

pIC50: −log10 of the molar value.

T1 sequence (Q9Y2K2 59-365 limits assumed): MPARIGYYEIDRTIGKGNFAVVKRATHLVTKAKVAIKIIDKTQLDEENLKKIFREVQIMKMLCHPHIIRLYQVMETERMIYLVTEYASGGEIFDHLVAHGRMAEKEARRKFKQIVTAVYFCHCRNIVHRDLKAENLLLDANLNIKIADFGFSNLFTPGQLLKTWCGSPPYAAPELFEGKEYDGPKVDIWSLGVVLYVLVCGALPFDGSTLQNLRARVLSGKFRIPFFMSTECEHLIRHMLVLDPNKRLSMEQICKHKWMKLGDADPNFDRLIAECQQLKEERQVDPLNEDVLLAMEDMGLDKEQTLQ

Turning to `COc1cc(-c2cnc3cc(C4(C#N)COC4)ccn23)cc(OC(F)F)c1C(=O)NC1CC1` [Cpd 117, 4-[7-(3-cyanooxetan-3-yl)imidazo[1,2-a]pyridin-3-yl]-N-cyclopropyl-2-(difluoromethoxy)-6-methoxy-benzamide], the “ear thickness compared to IL-23 vehicle group” value in experiment [1] (30 mg/kg p.o. b.i.d.) was “statistically significant decrease”.
As a reminder, the pIC50 is the negative decadic logarithm of the IC50, by convention in mol/L. In the case of `COc1cc(-c2cnc3cc(C4(C#N)CC4)ccn23)cc(OC(F)F)c1C(=O)NC1CC1` [Cpd 33, 4-[7-(1-cyanocyclopropyl)imidazo[1,2-a]pyridin-3-yl]-N-cyclopropyl-2-(difluoromethoxy)-6-methoxy-benzamide], the pIC50 in experiment [2] was 8.00 to 11.00.
Regarding `COc1cc(-c2cnc3cc(C(C)(C)C#N)ccn23)cc(OC)c1C(=O)NC1CC1` [Cpd 28, 4-[7-(1-cyano-1-methyl-ethyl)imidazo[1,2-a]pyridin-3-yl]-N-cyclopropyl-2,6-dimethoxy-benzamide], in experiment [2], the negative logarithm of the IC50 (pIC50) was 7.00 to 8.00.
For the compound `COc1cc(-c2cnc3cc(C(C)(C)C#N)ccn23)cc(OC(F)F)c1C(=O)NC1CC1` [Cpd 19, 4-[7-(1-cyano-1-methyl-ethyl)imidazo[1,2-a]pyridin-3-yl]-N-cyclopropyl-2-(difluoromethoxy)-6-methoxy-benzamide], in experiment [2], the negative-log IC50 (pIC50) is 8.00 to 11.00. In experiment [1] (10 mg/kg p.o. b.i.d.), the “ear thickness compared to IL-23 vehicle group” value is on record as “statistically significant decrease”. In addition, in experiment [3] (10 mg/kg p.o. b.i.d.), the “clinical score compared to diseased vehicle group” value is given as “statistically significant decrease”.
On to `COc1cc(-c2cnn3cc(C(C)(C)C#N)ccc23)cc(OC(F)F)c1C(=O)N[C@@H]1C[C@@H]1F` [Cpd 219, 4-[6-(1-cyano-1-methyl-ethyl)pyrazolo[1,5-a]pyridin-3-yl]-2-(difluoromethoxy)-N-[(1R,2S)-2-fluorocyclopropyl]-6-methoxy-benzamide], for which the “clinical score compared to diseased vehicle group” value in experiment [3] (3 mg/kg p.o. b.i.d.) was “statistically significant decrease”.
Take `COc1cc(-c2cnc3cc(C4COC4)ccn23)cc(OC(F)F)c1C(=O)NC1CC1` [Cpd 174, N-cyclopropyl-2-(difluoromethoxy)-6-methoxy-4-[7-(oxetan-3-yl)imidazo[1,2-a]pyridin-3-yl]benzamide]: in experiment [1] (3 mg/kg p.o. b.i.d.), the “ear thickness compared to IL-23 vehicle group” value is on record as “statistically significant decrease”. In addition, the “clinical score compared to diseased vehicle group” value in experiment [3] (30 mg/kg p.o. b.i.d.) is reported as “statistically significant decrease”.
For the compound `COc1cc(-c2cnn3cc(C4(N)CCC4)ccc23)cc(OC(F)F)c1C(=O)N[C@@H]1C[C@@H]1F` [Cpd 261, 4-[6-(1-aminocyclobutyl)pyrazolo[1,5-a]pyridin-3-yl]-2-(difluoromethoxy)-N-[(1R,2S)-2-fluorocyclopropyl]-6-methoxy-benzamide], the “clinical score compared to diseased vehicle group” value in experiment [3] (50 mg/kg p.o. b.i.d.) is recorded as “statistically significant decrease”.
Regarding `CCC(C)(C#N)c1ccn2c(-c3cc(OC)c(C(=O)NC4CC4)c(OC(F)F)c3)cnc2c1` (centres unmarked) [Cpd 27, 4-[7-(1-cyano-1-methyl-propyl)imidazo[1,2-a]pyridin-3-yl]-N-cyclopropyl-2-(difluoromethoxy)-6-methoxy-benzamide], in experiment [2], the pIC50 is 7.00 to 8.00.

The values above are taken from patent US12391679B2, “Benzamide-substituted bicyclic imidazo- and pyrazolo-fused -pyridine, -pyrimide, and -pyridazine compounds for treatment of inflammatory diseases” (ONCO3R Therapeutics BV, priority 2019, dated 2025).
